Results from PubChem BioAssay AID1918991 (Molecular Pharmacology Branch, DTP, NCI, 2023).

System: 186277-243-T-J2-PDC complex spheroid growth
Experiment: Anticancer human tumor 186277-243-T-J2-PDC patient-derived colon adenocarcinoma cell line growth inhibition [AhR]
Settings: for IC50: curve of first compound; for viability, T/C: stronger effect = lower value
Source text: Multicellular complex tumor spheroid response to aryl hydrocarbon receptor antagonists in combination with a variety of drugs and investigational agents in selected tumor cell lines
The current study was undertaken to assess response to aryl hydrocarbon receptor antagonists in combination with standard-of-care drugs and investigational agents in solid tumor complex spheroid models. Complex spheroids include a stromal component modeled by human endothelial cells (HUVEC) and fibroblasts modeled by human mesenchymal stem cells (MSCs). The concentration ranges selected for each drug and investigational agent were based upon clinically achievable concentrations if the clinical Cmax of the agent was known.
Compounds. The drugs and investigational agents: BAY 2416964 (NSC825713), GNF351 (NSC835774), CH-223191 (NSC835775), CPI-455 (NSC825282), aza-TdCyd (NSC777586), decitabine (NSC127716), belinostat (NSC758774), entinostat (NSC756642), pevonedistat (NSC761192), tazemetostat (NSC777109), talazoparib (NSC765396), olaparib (NSC753686), selinexor (NSC780203), nedisertib (M3814, NSC802822), bortezomib (NSC756655), venetoclax (NSC766270), doxorubicin (NSC123127), elimusertib (BAY189344, NSC800525), ceralasertib (AZD6738, NSC777638), TAK-243 (NSC785004), alisertib (NSC759677), etoposide (NSC141540), topotecan (NSC609699), eribulin (NSC707389), gemcitabine (NSC613327), carboplatin (NSC241240), cisplatin (NSC119875), and SN-38 (NSC673596) were obtained from the National Cancer Institute (NCI) Developmental Therapeutics Program Chemical Repository (32). The FDA-approved anticancer drug set is available from the Developmental Therapeutics Program at https://dtp.cancer.gov/organization/dscb/obtaining/available plates.htm. […] The stock solutions were prepared in dimethyl sulfoxide (DMSO, Sigma-Aldrich, St. Louis, MO, cat. D2650), except for the platinum compounds which were prepared in saline (Quality Biological, Gaithersburg, MD, cat. 114-055-101), at 800-fold the tested concentration and stored at -70 degrees C prior to their use. All drugs and investigational agents were tested over a range starting from a high concentration at or near the clinical Cmax and decreasing in half-log increments. If the clinical Cmax for an agent had not been determined, the highest concentration tested was 10 microM (Table 1).
Cell Culture. All cells were maintained in an incubator at 37 degrees C and 5% CO2 with 95% humidity. The PDC lines were cultured according to standard operating procedures established by the NCI PDMR (https://pdmr.cancer.gov). Briefly, all PDCs were thawed and cultured in Matrigel-coated flasks prepared with a working solution of 1X Ham's F-12 nutrient mix, without supplementation (Invitrogen, Waltham, MA, cat. 11765054), 100 U/mL penicillin-streptomycin (Invitrogen, cat. 15140122), and 2.5% Matrigel (Corning Inc., Corning, NY, cat. 354248) for the first three passages. All PDCs were cultured in complete DMEM/F-12 media containing advanced DMEM/F-12 (Invitrogen, cat. 12634028), 4.9% defined fetal bovine serum, heat inactivated (HyClone Laboratories Inc., Logan, UT, cat. SH30070.03HI), 389 ng/mL hydrocortisone (Sigma-Aldrich, cat. H4001), 9.7 ng/mL human EGF recombinant protein (Invitrogen, cat. PHG0313), 23.4 microg/mL adenine (Sigma-Aldrich, cat. A2786), 97.3 U/mL penicillin-streptomycin (Invitrogen, cat. 15140122), 1.9 mM L-glutamine (Invitrogen, cat. 25030081), and 9.7 microM Y-27632 dihydrochloride (Tocris Bioscience, Bristol, United Kingdom, cat. 1254). The PDCs were cultured in complete DMEM/F12 media without 10 microM Y-27632 dihydrochloride for at least two passages prior to the screen. The established cell lines NCI-H1341 and […] were cultured in DMEM/F-12, HEPES (Invitrogen, cat. 11330032), 5% defined fetal bovine serum (HyClone Laboratories Inc., cat. SH30070.03), ITS premix universal culture supplement [insulin (5 microg/mL), transferrin (5 microg/mL), and selenious acid (5 ng/mL)] […]

[1] = second compound 0.1 µM, first compound 0.0316 µM
[2] = second compound 0.1 µM, first compound 0.1 µM
[3] = second compound 0.1 µM, first compound 0.316 µM
[4] = second compound 0.1 µM, first compound 1 µM
[5] = second compound 0.1 µM, first compound 3.16 µM
[6] = second compound 0.1 µM, first compound 10 µM
[7] = second compound 0.316 µM, first compound 0.0316 µM
[8] = second compound 0.316 µM, first compound 0.1 µM
[9] = second compound 0.316 µM, first compound 0.316 µM
[10] = second compound 0.316 µM, first compound 1 µM
[11] = second compound 0.316 µM, first compound 3.16 µM
[12] = second compound 0.316 µM, first compound 10 µM
[13] = second compound 1 µM, first compound 0.0316 µM
[14] = second compound 1 µM, first compound 0.1 µM
[15] = second compound 1 µM, first compound 0.316 µM
[16] = second compound 1 µM, first compound 1 µM
[17] = second compound 1 µM, first compound 3.16 µM
[18] = second compound 1 µM, first compound 10 µM
[19] = second compound 3.16 µM, first compound 0.0316 µM
[20] = second compound 3.16 µM, first compound 0.1 µM
[21] = second compound 3.16 µM, first compound 0.316 µM
[22] = second compound 3.16 µM, first compound 1 µM
[23] = second compound 3.16 µM, first compound 3.16 µM
[24] = second compound 3.16 µM, first compound 10 µM
[25] = second compound 10 µM, first compound 0.0316 µM
[26] = second compound 10 µM, first compound 0.1 µM
[27] = second compound 10 µM, first compound 0.316 µM
[28] = second compound 10 µM, first compound 1 µM
[29] = second compound 10 µM, first compound 3.16 µM
[30] = second compound 10 µM, first compound 10 µM
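Also: spheroids exposed to compounds for seven days before the viability read.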
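For viability, T/C in this document: luminescent signal used as a stand-in for viable cell amount; 100% = DMSO vehicle control wells.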

`CC(C)CC(NC(=O)C(Cc1ccccc1)NC(=O)c1cnccn1)B(O)O` (stereo not given) + CC(CO)NC(=O)c1cc(-c2ccc(Cl)cc2)nn(-c2cnn(C)c2)c1=O gave an IC50 (second compound 0.1 µM) of 5.95 nM, an IC50 (second compound 0.316 µM) of 5.9 nM and an IC50 (second compound 1 µM) of 6.06 nM. For the same molecule, the IC50 (second compound 3.16 µM) was 5.87 nM, the IC50 (second compound 10 µM) was 5.37 nM and the viability, T/C (second compound 0.1 µM, first compound 0.000949 µM) was 117%. For the same molecule, the viability, T/C (second compound 0.1 µM, first compound 0.003 µM) was 120%, the viability, T/C (second compound 0.1 µM, first compound 0.00949 µM) was 3.22% and the viability, T/C (second compound 0.1 µM, first compound 0.03 µM) was 0.06%. It also gave a viability, T/C (second compound 0.1 µM, first compound 0.0949 µM) of 0.07%, a viability, T/C (second compound 0.1 µM, first compound 0.3 µM) of 0.11% and a viability, T/C (second compound 0.316 µM, first compound 0.000949 µM) of 121%. It also gave a viability, T/C (second compound 0.316 µM, first compound 0.003 µM) of 117%, a viability, T/C (second compound 0.316 µM, first compound 0.00949 µM) of 3.12% and a viability, T/C (second compound 0.316 µM, first compound 0.03 µM) of 0.03%. The viability, T/C (second compound 0.316 µM, first compound 0.0949 µM) was 0.05%, the viability, T/C (second compound 0.316 µM, first compound 0.3 µM) was 0.11% and the viability, T/C (second compound 1 µM, first compound 0.000949 µM) was 110%. It also gave a viability, T/C (second compound 1 µM, first compound 0.003 µM) of 132%, a viability, T/C (second compound 1 µM, first compound 0.00949 µM) of 4.62% and a viability, T/C (second compound 1 µM, first compound 0.03 µM) of 0.06%. It also gave a viability, T/C (second compound 1 µM, first compound 0.0949 µM) of 0.04%, a viability, T/C (second compound 1 µM, first compound 0.3 µM) of 0.11% and a viability, T/C (second compound 3.16 µM, first compound 0.000949 µM) of 114%. The viability, T/C (second compound 3.16 µM, first compound 0.003 µM) was 118%, the viability, T/C (second compound 3.16 µM, first compound 0.00949 µM) was 2.71% and the viability, T/C (second compound 3.16 µM, first compound 0.03 µM) was 0.06%. The viability, T/C (second compound 3.16 µM, first compound 0.0949 µM) was 0.05%, the viability, T/C (second compound 3.16 µM, first compound 0.3 µM) was 0.12% and the viability, T/C (second compound 10 µM, first compound 0.000949 µM) was 96.3%. It also gave a viability, T/C (second compound 10 µM, first compound 0.003 µM) of 100%, a viability, T/C (second compound 10 µM, first compound 0.00949 µM) of 2.68% and a viability, T/C (second compound 10 µM, first compound 0.03 µM) of 0.15%. It also gave a viability, T/C (second compound 10 µM, first compound 0.0949 µM) of 0.15% and a viability, T/C (second compound 10 µM, first compound 0.3 µM) of 0.23%.

Molecule `Nc1ccccc1NC(=O)c1ccc(CNC(=O)OCc2cccnc2)cc1` + CC(CO)NC(=O)c1cc(-c2ccc(Cl)cc2)nn(-c2cnn(C)c2)c1=O has an IC50 (second compound 0.1 µM) of 560 nM, an IC50 (second compound 0.316 µM) of 486 nM and an IC50 (second compound 1 µM) of 496 nM. For the same molecule, the IC50 (second compound 3.16 µM) was 447 nM, the IC50 (second compound 10 µM) was 211 nM and the viability, T/C [1] was 89%. The viability, T/C [2] was 95.2%, the viability, T/C [3] was 67.4% and the viability, T/C [4] was 30.2%. For the same molecule, the viability, T/C [5] was 10.7%, the viability, T/C [6] was 0.66% and the viability, T/C [7] was 84.3%. For the same molecule, the viability, T/C [8] was 87.1%, the viability, T/C [9] was 57.2% and the viability, T/C [10] was 32.9%. It also gave a viability, T/C [11] of 8.17%, a viability, T/C [12] of 0.43% and a viability, T/C [13] of 93%. For the same molecule, the viability, T/C [14] was 94.7%, the viability, T/C [15] was 61.8% and the viability, T/C [16] was 28.1%. For the same molecule, the viability, T/C [17] was 8.39%, the viability, T/C [18] was 0.38% and the viability, T/C [19] was 83.7%. It also gave a viability, T/C [20] of 79.7%, a viability, T/C [21] of 62.2% and a viability, T/C [22] of 22.2%. The viability, T/C [23] was 7.6%, the viability, T/C [24] was 0.3% and the viability, T/C [25] was 70.3%. It also gave a viability, T/C [26] of 68.8%, a viability, T/C [27] of 39.2% and a viability, T/C [28] of 16.6%. The viability, T/C [29] was 7.12% and the viability, T/C [30] was 0.32%.

Molecule `O=C(C=Cc1cccc(S(=O)(=O)Nc2ccccc2)c1)NO` + CC(CO)NC(=O)c1cc(-c2ccc(Cl)cc2)nn(-c2cnn(C)c2)c1=O has an IC50 (second compound 0.1 µM) of 324 nM, an IC50 (second compound 0.316 µM) of 347 nM and an IC50 (second compound 1 µM) of 285 nM. For the same molecule, the IC50 (second compound 3.16 µM) was 248 nM, the IC50 (second compound 10 µM) was 164 nM and the viability, T/C [1] was 101%. It also gave a viability, T/C [2] of 94.5%, a viability, T/C [3] of 50.5% and a viability, T/C [4] of 9.56%. It also gave a viability, T/C [5] of 1.99%, a viability, T/C [6] of 0.31% and a viability, T/C [7] of 92.5%. It also gave a viability, T/C [8] of 83.8%, a viability, T/C [9] of 54.3% and a viability, T/C [10] of 10.1%. The viability, T/C [11] was 2%, the viability, T/C [12] was 0.32% and the viability, T/C [13] was 86.1%. For the same molecule, the viability, T/C [14] was 80.5%, the viability, T/C [15] was 46.7% and the viability, T/C [16] was 10.7%. For the same molecule, the viability, T/C [17] was 1.43%, the viability, T/C [18] was 0.32% and the viability, T/C [19] was 91.5%. For the same molecule, the viability, T/C [20] was 77.7%, the viability, T/C [21] was 43.4% and the viability, T/C [22] was 8.38%. It also gave a viability, T/C [23] of 1.57%, a viability, T/C [24] of 0.28% and a viability, T/C [25] of 70.2%. It also gave a viability, T/C [26] of 58.5%, a viability, T/C [27] of 37.2% and a viability, T/C [28] of 6.55%. It also gave a viability, T/C [29] of 1.99% and a viability, T/C [30] of 0.42%.
